Source: ChEMBL document CHEMBL1133560, “Design and synthesis of new orally active nonpeptidic inhibitors of human neutrophil elastase” (J Med Chem, 2000)

Columns and labels:
[1] = Percent oral bioavailability evaluated in rat; format: ADME, organism-based; details: in vivo
[2] = Percent oral bioavailability evaluated in dog; format: ADME, organism-based, Canis lupus familiaris; details: in vivo
[3] = Percent oral bioavailability evaluated in monkey; format: ADME, organism-based; details: cercopithecidae, in vivo
[4] = (§1) Effective dose determined in an animal model which lasted for more than 8 h; format: functional
[5] = as §1; format: ADME

bioavailability [1] | bioavailability [2] | bioavailability [3] | ED50 [5] | Structure (SMILES) | ED50 [4]
51% | 31% | 18% |  | CC(C)C(NC(=O)Cn1c(-c2ccccc2)ncc(N)c1=O)C(=O)c1nnc(C(C)(C)C)o1 (stereo not given) | 1.4 mg/kg
 |  |  | 7.5 mg/kg | CC(C)C(NC(=O)Cn1c(-c2ccc(F)cc2)ncc(N)c1=O)C(=O)C(F)(F)F (stereo not given) | 
